According to US20040067932A1 (priority 2002, published 2004):
Values after ≈ are worked out from the molar mass of the structure shown. Where two headings read alike, the source gives them in different places.

Key:
[1] = target: T1, human A3 adenosine receptor (Homo sapiens, UniProt P0DMS8); conditions: read-out: Ki (binding affinity at human A3 adenosine receptor); A375 cells
T1 sequence (P0DMS8 1-318): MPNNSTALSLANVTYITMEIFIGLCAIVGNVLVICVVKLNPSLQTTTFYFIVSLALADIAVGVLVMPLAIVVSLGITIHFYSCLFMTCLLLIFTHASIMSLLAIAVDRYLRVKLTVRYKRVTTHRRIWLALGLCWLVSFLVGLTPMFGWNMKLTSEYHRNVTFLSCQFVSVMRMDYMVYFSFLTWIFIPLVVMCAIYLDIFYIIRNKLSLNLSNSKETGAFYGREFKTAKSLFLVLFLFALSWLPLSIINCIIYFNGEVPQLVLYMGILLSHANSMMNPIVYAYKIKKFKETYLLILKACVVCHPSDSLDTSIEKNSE

A375 cells = test: Flow cytometry (PI) G2/M accumulation and sub-G1 apoptosis, A375; type: cell-based, human; conditions: A375, vindesine 1 nM, G2/M accumulation dose response curve, read-out: SEC50 (dose inducing 50% of the enhancing activity to vindesine)
Procedure: A375 and NCTC2544 adherent cells were trypsinized, mixed with floating cells, washed with PBS and permeabilised in 70% (vol/vol) ethanol/PBS solution at 4° C. for at least 24 hours. Jurkat, HeL023 and PBMC cells were centrifuged for 10 minutes at 1000×g. The cell pellet was then resuspended and permeabilised in 70% (vol/vol) ethanol/PBS solution at 4° C. for at least 24 hours. The cells were washed with PBS and the DNA was stained with a PBS solution, containing 20 μg/ml of propidium iodide and 100 μg/ml of RNAse, at room temperature for 30 minutes. Cells were analysed by FACScan (Becton-Dickinson) and the content of DNA was evaluated by the Cell-LISYS program (Becton-Dickinson). Cell distribution among cell cycle phases and apoptotic cells was evaluated as previously described (Secchiero et al., 2001). Briefly, the cell cycle distribution is shown as the percentage of cells containing 2n (G1 phase), 4n (G2 and M phases), 4n>x>2n. DNA amount (S phase) judged by propidium iodide staining. The apoptotic population is the percentage of cells with DNA content lower than 2n.
Cell proliferation and apoptosis are quantified by flow cytometer analysis after propidium-iodide (PI) DNA staining.

[2] = target: T2, P-gp drug efflux activity in HeL023 cells (Homo sapiens, UniProt P08183); test: Rhodamine 123 efflux assay, HeL023 cells; type: cell-based; conditions: Rh123 efflux, concentrations of Table 11 (MRE3008F20 10 μM)
T2 construct: nearly all (100±1%) the cells expressing high level of functional P-gp; endogenous in cells; host or cells: HeL023 human erythroleukemia cells
Procedure: 5×10^5 cells from each subline were loaded with 50 ng/ml of rhodamine 123 for 30 minutes at 37° C. in medium. The cells were washed and resuspended in dye-staining agent free medium for 3 hours at 37° C. to allow rhodamine 123 efflux. The cells were then washed twice and the fluorescence of intracellular rhodamine 123 were analysed with Flow cytometer (residual fluorescence FRES). The fluorescence was compared with loaded cells maintained at 4° C. to prevent drug export (maximal fluorescence FMAX). […] Cells from each subline that were not being exposed to rhodamine 123 were used as negative controls.
Rhodamine 123 (Rh123) retention, a P-gp functional assay, was studied in all cell lines. This assay was performed by incubating cells with Rh123 and determining Rh123 accumulation by measuring its fluorescence. The maximum load of Rh123 (FMAX) was quantified at the end of treatment harvesting the cells and storing them at 4° C. to prevent any active Rh123 efflux . The P-gp drug efflux was allowed incubating Rh123-loaded cells in fresh new medium Rh123-free for 3 hours at 37° C. After this incubation, residual fluorescence (FRES) was measured and compared to FMAX.

[3] = system: human lung carcinoma SKMES; test: MTT growth inhibitory assay, SKMES; type: cell-based
Procedure: (§1) One of the growth inhibitory assays is the MTT assay. Cells (1000-1500 cells/well) are seeded in a 96-well micro culture plate in a total volume of 100 μl/well. After overnight incubation in a humidified incubator at 37° C. with 5% CO2-95% air, chemotherapeutic drug solutions diluted with culture medium at various concentrations are added in the amount of 100 μl to each well. The plates are placed in a humidified incubator at 37° C. with 5% CO2-95% air for 7-10 days. The plates are then centrifuged briefly and 100 μl of the growth medium is removed. Cell cultures are incubated with 50 μl of MTT [3-(4,5-dimethylthiazol-2-yl)-2,5-diphenyl-tetrazolium bromide] reagent (1 mg/ml in Dulbecco's phosphate-buffered saline) for 4 hr at 37° C. The resultant purple formazan precipitate is solubilized with 200 μl of 0.04 N HCl in isopropanol. Absorbance is measured at a wavelength of 595 nm and at a reference wavelength of 655 nm using a Bio-Rad Model 3550 Microplate Reader. Preferably, all tests are run in duplicate for each dose level.
(§2) The EZED50 computer program estimates the concentration of agent that inhibits cell growth by 50% as compared to the control cells. This is termed the IC50 and is determined by curve fitting test data using the following four logistic equation. [formula]
(§3) Inhibitory assay testing is also used to determine enhanced therapeutic effects from combining A3 receptor antagonists with other tumor inhibiting agents. The inhibitory cell growth assays are run with and without selected concentrations of A3 receptor antagonists. An enhanced therapeutic effect is present when the IC50 of the tumor inhibiting agent is lower with the A3 receptor antagonist.
(§4) Quantitatively, the enhancement factor (EF) is calculated by dividing the IC50 value of the tumor inhibiting agent for a tumor cell line by the IC50 value of the agent with A3 receptor antagonist for the same cell line: [formula]

[4] = system: human melanoma A375 cell line; test: MTT growth inhibitory assay, A375; type: cell-based
Procedure: as §1, §2, §3, §4

rA2A adenosine receptor = rA2A adenosine receptor (Rattus norvegicus, UniProt P30543); test: Binding affinity at rA2A adenosine receptor
rA1 adenosine receptor = target: T3, rA1 adenosine receptor (Rattus norvegicus, UniProt P25099); test: Binding affinity at rA1 adenosine receptor
T3 sequence (P25099 1-326): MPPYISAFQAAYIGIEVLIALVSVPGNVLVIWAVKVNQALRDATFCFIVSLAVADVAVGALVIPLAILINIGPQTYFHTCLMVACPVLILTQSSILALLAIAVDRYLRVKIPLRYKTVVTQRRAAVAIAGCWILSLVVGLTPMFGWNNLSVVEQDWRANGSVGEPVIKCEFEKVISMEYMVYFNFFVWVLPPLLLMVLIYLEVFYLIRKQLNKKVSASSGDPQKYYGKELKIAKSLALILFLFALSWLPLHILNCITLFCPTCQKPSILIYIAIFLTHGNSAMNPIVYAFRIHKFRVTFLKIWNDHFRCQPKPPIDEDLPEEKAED

[5] = system: human colon carcinoma HT29 cell line; test: MTT growth inhibitory assay, HT29; type: cell-based
Procedure: as §1, §2, §3, §4

[6] = system: human pancreatic cancer Panc-1; test: MTT growth inhibitory assay, Panc-1; type: cell-based
Procedure: as §1, §2, §3, §4

[7] = Panc-1, A3 antagonist 0.5 μg/ml

T2 sequence (P08183 whole entry): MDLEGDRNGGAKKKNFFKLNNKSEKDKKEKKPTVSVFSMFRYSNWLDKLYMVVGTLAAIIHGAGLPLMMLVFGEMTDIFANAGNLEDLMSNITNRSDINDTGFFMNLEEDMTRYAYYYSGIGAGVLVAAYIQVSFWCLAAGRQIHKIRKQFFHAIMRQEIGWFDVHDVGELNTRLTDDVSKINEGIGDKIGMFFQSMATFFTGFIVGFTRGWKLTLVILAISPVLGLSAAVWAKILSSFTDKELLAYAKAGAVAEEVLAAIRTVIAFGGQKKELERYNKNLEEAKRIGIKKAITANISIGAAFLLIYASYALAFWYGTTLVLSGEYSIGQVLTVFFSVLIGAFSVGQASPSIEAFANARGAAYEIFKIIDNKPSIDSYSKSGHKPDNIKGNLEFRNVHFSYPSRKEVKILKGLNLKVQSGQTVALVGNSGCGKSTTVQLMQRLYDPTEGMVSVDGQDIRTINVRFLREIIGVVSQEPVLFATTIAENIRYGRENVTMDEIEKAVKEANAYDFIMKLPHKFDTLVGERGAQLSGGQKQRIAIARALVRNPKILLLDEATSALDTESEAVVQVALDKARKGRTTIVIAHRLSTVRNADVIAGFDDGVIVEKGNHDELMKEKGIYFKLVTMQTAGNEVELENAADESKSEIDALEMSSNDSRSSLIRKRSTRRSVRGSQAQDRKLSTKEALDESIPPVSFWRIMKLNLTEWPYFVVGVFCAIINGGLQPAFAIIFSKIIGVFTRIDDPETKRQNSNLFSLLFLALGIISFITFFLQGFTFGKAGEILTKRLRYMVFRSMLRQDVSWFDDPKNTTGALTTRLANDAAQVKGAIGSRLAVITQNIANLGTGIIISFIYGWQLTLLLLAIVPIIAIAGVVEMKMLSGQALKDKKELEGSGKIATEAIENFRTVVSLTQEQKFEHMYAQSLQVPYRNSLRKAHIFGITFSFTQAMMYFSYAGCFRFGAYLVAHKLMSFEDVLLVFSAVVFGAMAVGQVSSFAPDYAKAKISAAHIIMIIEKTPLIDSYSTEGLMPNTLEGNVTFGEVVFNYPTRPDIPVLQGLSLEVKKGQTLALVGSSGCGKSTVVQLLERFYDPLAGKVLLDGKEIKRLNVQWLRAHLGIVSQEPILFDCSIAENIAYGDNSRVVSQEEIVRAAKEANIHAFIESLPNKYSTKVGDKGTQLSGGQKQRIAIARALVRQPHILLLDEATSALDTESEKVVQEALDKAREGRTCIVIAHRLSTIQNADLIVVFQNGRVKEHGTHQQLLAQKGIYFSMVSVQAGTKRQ
Chain of rA2A adenosine receptor (P30543 whole entry): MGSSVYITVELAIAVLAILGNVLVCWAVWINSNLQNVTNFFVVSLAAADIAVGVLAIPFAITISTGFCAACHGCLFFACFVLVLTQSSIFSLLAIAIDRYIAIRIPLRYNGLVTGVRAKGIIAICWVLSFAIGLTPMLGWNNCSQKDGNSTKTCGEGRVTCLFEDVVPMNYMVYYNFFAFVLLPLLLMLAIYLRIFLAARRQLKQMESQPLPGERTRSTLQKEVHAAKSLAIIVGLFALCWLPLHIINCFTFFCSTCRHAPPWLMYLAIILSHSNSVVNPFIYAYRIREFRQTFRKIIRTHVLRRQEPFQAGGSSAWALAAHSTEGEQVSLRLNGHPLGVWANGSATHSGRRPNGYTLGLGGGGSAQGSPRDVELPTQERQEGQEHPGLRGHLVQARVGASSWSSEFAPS

CCCCn1cc2c(nc(NC(=O)Nc3ccccc3)n3nc(-c4ccco4)nc23)n1 [MRE 3062F20, 5-N-(4-phenyl-carbamoyl)amino-8-butyl-2 (2furyl)-pyrazolo-[4,3e]-1,2,4triazolo[1,5-c]pyrimidine]
Ki [1]: 0.0023 ± 0.0002 µM
EC50 (A375 cells): 0.43 ± 0.04 µM
inhibition of P-gp activity (in words) [2]: strong inhibitors of P-gp activity

CCN(CC)c1ccc(NC(=O)Nc2nc3nn(C)cc3c3nc(-c4ccco4)nn23)cc1 [IL-10, N-1-(4-diethylamino-phenyl)-N′-5-[8-methyl-2-(2-furyl)-pyrazolo[4 ,3-e]1,2,4-triazolo[1,5-c]pyrimidine]-urea]
IC50 ([3]; Human Lung Carcinoma SKMES, read-out: IC50 growth inhibition, agent used separately): 5.9 ± 0.3 mg/L (≈ 13.2 µM)
Enhancement Factor for docetaxel ([3]; SKMES, A3 antagonist 0.5 μg/ml): 2.8
Enhancement Factor for irinotecan HCL ([3]; SKMES, A3 antagonist 0.5 μg/ml): 1.7
Enhancement Factor for paclitaxel ([3]; SKMES, A3 antagonist 0.5 μg/ml): 2.8
Enhancement Factor for vinblastine ([3]; SKMES, A3 antagonist 0.5 μg/ml): 1.4
Enhancement Factor for docetaxel ([4]; A375, A3 antagonist 0.5 μg/ml): 8.4
Enhancement Factor for paclitaxel ([4]; A375, A3 antagonist 0.5 μg/ml): 3.7
Enhancement Factor for docetaxel ([4]; A375, A3 antagonist 5 μg/ml): 2.9
Enhancement Factor for paclitaxel ([4]; A375, A3 antagonist 5 μg/ml, paclitaxel 0.0001-0.05 μg/ml): 8.8
Enhancement Factor for paclitaxel ([4]; A375, A3 antagonist 5 μg/ml, paclitaxel 0.0002-0.1 μg/ml): 9.2
IC50 ([4]; Homo sapiens, A-375, Human Melanoma A375, read-out: IC50 growth inhibition, agent used separately): 11.9 ± 0.4 mg/L (≈ 26.7 µM)
inhibition at 5 µg/mL ([4]; Homo sapiens, A-375, A375, 5 μg/ml, read-out: growth inhibition in the presence of A3 antagonist alone): 30 to 45%
Ki (rA2A adenosine receptor): 0.523 µM
Ki (rA1 adenosine receptor): 0.58 µM
Enhancement Factor for docetaxel ([5]; HT29, A3 antagonist 0.5 μg/ml): 5.5
Enhancement Factor for doxorubicin ([5]; HT29, A3 antagonist 0.5 μg/ml): 1.5
Enhancement Factor for irinotecan HCl ([5]; HT29, A3 antagonist 0.5 μg/ml): 1.2
Enhancement Factor for paclitaxel ([5]; HT29, A3 antagonist 0.5 μg/ml): 2.5
IC50 ([5]; HT-29, Human Colon Carcinoma HT29, read-out: IC50 growth inhibition, agent used separately): 10 ± 0.7 mg/L (≈ 22.4 µM)
EC50 (A375 cells; Homo sapiens, A-375): 0.97 ± 0.1 µM
inhibition of P-gp activity (in words) [2]: strong inhibitors of P-gp activity
IC50 ([6]; Human Pancreatic Cancer Panc-1, read-out: IC50 growth inhibition, agent used separately): 3.9 ± 3.3 mg/L (≈ 8.75 µM)
Enhancement Factor for docetaxel [6, 7]: 1.4
Enhancement Factor for paclitaxel [6, 7]: 1.7
